Test results taken from patent publication US12433860B2, “Treatment of multiple sclerosis comprising DHODH inhibitors” (Immunic AG, priority 2021, dated 2025).
Where “and” joins values, the source holds several entries; their conditions need not be identical. Equal entries are not always repeated. Structures can show the parent of a compound that is named as a salt.

Key:
[1] = test system: T-lymphocyte proliferation; details: in vitro; cited from earlier work
[2] = test system: patients with RRMS and evidence of active disease; experiment: EMPhASIS Cohort 2 interim analysis: MRI lesions up to Week 12; assay type: in vivo, human; details: for Cumulative number of New Gd+ lesions up to Week 12, Mean / Cumulative number of CUA MRI lesions up to Week 12, Mean / Patients without CUA MRI lesions over 12 weeks / Patients without New Gd+ lesions over 12 weeks: mFAS; for Cumulative number of New Gd+ lesions up to Week 12, Mean: placebo 3.5; for Cumulative number of CUA MRI lesions up to Week 12, Mean: placebo 4.4; for Patients without CUA MRI lesions over 12 weeks: placebo 41.4; for Patients without CUA MRI lesions over 12 weeks / Patients without New Gd+ lesions over 12 weeks: listed as IMU-838; for Patients without New Gd+ lesions over 12 weeks: placebo 49.3
[3] = test system: patients with RRMS and evidence of active disease; experiment: as above; assay type: in vivo, human
Protocol: Given the relative equal performance of the two doses in Cohort 1 (see Example 1) and to allow for pharmacodynamic modeling of the dose-response relationship, a lower dose was investigated. The objective of the Cohort 2 sub-trial is to obtain exploratory data on the dose response of IMU-838 by evaluating a lower IMU-838 dose i.e. 10 mg/day to provide additional data for pharmacodynamic modelling. The 10 mg IMU-838 dose was selected since it is more than 50% lower than the lowest effective dose of Cohort 1 (30 mg IMU 838) and avoids undesired overlap in serum trough levels for pharmacodynamic modelling of the pooled Cohort 1 and 2 data. A small placebo arm is included to provide blinding of patients and to relate Cohort 2 treatment effects. Assessments and procedures mostly follow those described for the main treatment period in the Cohort 1 main trial. Trial objectives and endpoints: The objective of this sub-trial is to obtain more efficacy and safety data of IMU-838 in patients with RRMS and to allow pharmacodynamic modelling of the dose response. The endpoints analyzed in this interim analysis were between-treatment differences in the following MRI parameters: cumulative number of CUA MRI lesions up to Week 12; cumulative number of new Gadolinium enhancing (Gd+) lesions up to Week 12; proportion of patients without CUA MRI lesions until Week 12; and proportion of patients without new Gd+ lesions until Week 12. Overall trial design and plan: This is a double-blind, placebo-controlled, randomized, parallel-group sub-trial of P2 IMU-838 MS to assess the efficacy and safety of once-daily oral 10 mg/day IMU-838 compared to placebo in patients with RRMS and evidence of active disease. The sub-trial consists of a blinded main treatment period and an open-label, extended treatment period (FIG. 2). Patients were randomized 1:4 to placebo and 10 mg IMU-838 on Day 0.

[4] = test system: patients with relapsing-remitting multiple sclerosis; experiment: EMPhASIS Cohort 1: annualized relapse rate and time-to-first relapse; assay type: in vivo, human; details: for adjusted mean annualized relapse rate: baseline until week 24
Protocol: Other secondary endpoints included: the difference in the cumulative number of combined unique active lesions up to week 24 between vidofludimus calcium 45 mg and vidofludimus calcium 30 mg; number or cumulative number of gadolinium-enhancing, T1, or T2 lesions up to 24 weeks; annualized relapse rate from baseline until week 24; proportion of relapse-free patients up to week 24; time-to-first relapse; change in EDSS score from baseline; proportion of patients with EDSS score progression; brain atrophy and other MRI endpoints; and safety and tolerability as assessed by the investigators. Annualized relapse rate was defined as the total number of confirmed relapses divided by the real exposure time in years assessed over the time during the double-blind treatment period. EDSS progression was defined as an increase compared to baseline of at least 1.0 point for patients with a baseline EDSS score of 1.0 to 4.0 or of at least 1.5 points for patients with a baseline EDSS score of 0. Vidofludimus calcium trough concentrations (weeks 6 and 24) were used to assess the correlation between pharmacokinetics and MRI-based assessments. The effects of vidofludimus calcium on serum neurofilament (baseline and week 24) were also analyzed. All other secondary efficacy analyses were reported using descriptive statistics and were considered exploratory. The mean number or cumulative number of gadolinium-enhancing (Gd+), T1, or T2 lesions were summarized descriptively and analyzed with a generalized linear model as described earlier but adjusted for MRI field strength and baseline number of gadolinium-enhancing lesions only. Annualized relapse rate was compared between treatment groups and between the pooled vidofludimus calcium groups and placebo using a generalized linear model adjusted for baseline number of gadolinium-enhancing lesions, which included the offset term for real exposure time. Time-to-first relapse up to 24 weeks was analyzed using a Cox proportional hazards model, with covariates for treatment group and baseline gadolinium-enhancing lesions strata. The proportion of patients free of relapse was estimated using the Kaplan-Meier method. Statistical analyses were done using SAS version 9.4 (SAS Institute, Cary, NC, USA).

Compound: COc1cccc(-c2ccc(NC(=O)C3=C(C(=O)O)CCC3)c(F)c2)c1 [vidofludimus calcium, 1-cyclopentene-1-carboxylic acid, 2-(((3-fluoro-3′-methoxy(1,1′-biphenyl)-4-yl)amino)carbonyl)-, calcium salt (2:1)]
- T-lymphocyte proliferation [1]: inhibited
- suppression of Gd+ lesions at Week 12 compared with placebo ([2]; 10 mg): 40%
- Cumulative number of New Gd+ lesions up to Week 12, Mean ([2]; 10 mg (C2)): 2.0
- suppression of CUA lesions at Week 12 compared with placebo ([2]; 30 mg): 68%
- suppression of Gd+ lesions at Week 12 compared with placebo ([2]; 30 mg): 66%
- Cumulative number of New Gd+ lesions up to Week 12, Mean ([2]; 30 mg (C1)): 1.2
- Cumulative number of CUA MRI lesions up to Week 12, Mean ([2]; 30 mg (C1)): 1.4
- Patients without CUA MRI lesions over 12 weeks ([2]; 30 mg (C1)): 62% and 61.5%
- Patients without New Gd+ lesions over 12 weeks ([2]; 30 mg (C1)): 66% and 66.2%
- suppression of CUA lesions at Week 12 compared with placebo ([2]; 45 mg): 75%
- suppression of Gd+ lesions at Week 12 compared with placebo ([2]; 45 mg): 74%
- Cumulative number of New Gd+ lesions up to Week 12, Mean ([2]; 45 mg (C1)): 0.9
- Cumulative number of CUA MRI lesions up to Week 12, Mean ([2]; 45 mg (C1)): 1.1
- Patients without CUA MRI lesions over 12 weeks ([2]; 45 mg (C1)): 55% and 54.5%
- Patients without New Gd+ lesions over 12 weeks ([2]; 45 mg (C1)): 61% and 60.6%
- suppression of CUA lesions at Week 12 compared with placebo ([3]; 10 mg): 32%
- Cumulative number of CUA MRI lesions up to Week 12, Mean ([3]; 10 mg (C2), mFAS, placebo 4.4): 3.0
- Patients without CUA MRI lesions over 12 weeks ([3]; 10 mg (C2), mFAS, placebo 41.4, listed as IMU-838): 46% and 45.7%
- Patients without New Gd+ lesions over 12 weeks ([3]; 10 mg (C2), mFAS, placebo 49.3, listed as IMU-838): 51% and 51.1%
- lowest effective dose in patients with rrMS ([3]; totality of Cohort 1 data and Week 12 interim analysis of Cohort 2): 30 mg
- adjusted mean annualized relapse rate ([4]; 30 mg once daily): 0.39 (95% Cl 0.22-0.69)
- hazard ratio for relapse up to 24 weeks ([4]; 30 mg vs placebo): 0.58 (95% Cl: 0.26-1.29)
- rate ratio, annualized relapse rate ([4]; 30 mg vs placebo): 0.72 (95% Cl 0.34-1.55)
- adjusted mean annualized relapse rate ([4]; 45 mg once daily): 0.48 (95% Cl 0.28-0.82)
- hazard ratio for relapse up to 24 weeks ([4]; 45 mg vs placebo): 0.78 (95% Cl: 0.37-1.59)
- rate ratio, annualized relapse rate ([4]; 45 mg vs placebo): 0.90 (95% Cl 0.44-1.86)
